Assay results from patent publication US12378251B2, “Triazolopyrimidine compound and salt, composition and use thereof” (SHANGHAI INSTITUTE OF MATERIA MEDICA, CHINESE ACADEMY OF …, priority 2019, dated 2025).
Read-outs that look alike come from different tables or passages of the source.

Columns and labels:
[1] = tested on: human colon cancer cells HCT-116; test: Inhibition of proliferation of HCT-116 cells (SRB method); format: cell-based
Description: The inhibitory effects of the compounds on the proliferation of human colon cancer cells HCT-116 were detected by a sulforodamine B (SRB) method. The specific steps were as follows: HCT-116 cells in the logarithmic phase were seeded into a 96-well culture plate at a suitable density with 90 μL per well. After overnight cultivation, the compounds at different concentrations were added to act for 72 h, and a solvent control group (negative control) was set. After 72 h of the compounds acting on the cells, the effects of the compounds on cell proliferation were detected using the SRB method as follows. The culture solution was discarded, and 100 μL/well of 10% trichloroacetic acid (TCA) pre-cooled at 4° C. was added, fixed at 4° C. for 1 h, then washed with distilled water for 5 times, and naturally dried in the air; 100 μL/well of SRB (4 mg/ml) solution prepared by 1% glacial acetic acid was added, stained at room temperature for 15 minutes; the supernatant was removed, washed with 1% acetic acid for 5 times, and air dried; 150 μl/well of Tris (10 mM) solution was added, then left at room temperature for 15 minutes; finally, a full-wavelength microplate enzyme-labeled instrument SpectraMax 190 was used to read with a measurement wavelength of 560 nm. The inhibition rate (%) of the compound on tumor cell growth was calculated by the following formula: [formula]

[2] = molecular target: NAE enzyme (human recombinant APPBP1/UBA3) (Homo sapiens (Human), UniProt Q8TBC4); test: Inhibition of NAE enzyme activity at the molecular level (HTRF); format: biochemical
Description: Homogeneous Time-Resolved Fluorescence (HTRF) technology was used to detect the in vitro inhibitory effect of the compound on NAE enzyme activity. […] (7) the inhibition rate of the compound was calculated by the following formula: • a. […] IC50 was calculated with a GraphPad software.

[3] = HCT-116 cells, 72 h, SRB, read-out: HCT-116 IC50*
[4] = HCT-116, 72 h, read-out: HCT-116 IC50* (μM)

Sequence of NAE enzyme (human recombinant APPBP1/UBA3) (Q8TBC4 whole entry): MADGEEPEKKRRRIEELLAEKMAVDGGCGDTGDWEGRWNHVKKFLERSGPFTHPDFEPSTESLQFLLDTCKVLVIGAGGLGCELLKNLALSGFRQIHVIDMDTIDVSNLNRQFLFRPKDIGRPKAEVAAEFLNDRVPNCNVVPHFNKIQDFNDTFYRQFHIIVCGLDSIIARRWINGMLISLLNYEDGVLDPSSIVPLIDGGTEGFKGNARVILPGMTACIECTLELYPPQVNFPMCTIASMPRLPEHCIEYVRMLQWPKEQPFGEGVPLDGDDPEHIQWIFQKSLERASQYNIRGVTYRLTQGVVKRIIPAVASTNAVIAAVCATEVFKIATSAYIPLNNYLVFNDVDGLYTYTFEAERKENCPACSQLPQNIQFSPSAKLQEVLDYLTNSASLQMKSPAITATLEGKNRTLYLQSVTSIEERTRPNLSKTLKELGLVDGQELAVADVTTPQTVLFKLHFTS
Sequence of NAE enzyme (human recombinant APPBP1/UBA3) (Q13564 whole entry partner): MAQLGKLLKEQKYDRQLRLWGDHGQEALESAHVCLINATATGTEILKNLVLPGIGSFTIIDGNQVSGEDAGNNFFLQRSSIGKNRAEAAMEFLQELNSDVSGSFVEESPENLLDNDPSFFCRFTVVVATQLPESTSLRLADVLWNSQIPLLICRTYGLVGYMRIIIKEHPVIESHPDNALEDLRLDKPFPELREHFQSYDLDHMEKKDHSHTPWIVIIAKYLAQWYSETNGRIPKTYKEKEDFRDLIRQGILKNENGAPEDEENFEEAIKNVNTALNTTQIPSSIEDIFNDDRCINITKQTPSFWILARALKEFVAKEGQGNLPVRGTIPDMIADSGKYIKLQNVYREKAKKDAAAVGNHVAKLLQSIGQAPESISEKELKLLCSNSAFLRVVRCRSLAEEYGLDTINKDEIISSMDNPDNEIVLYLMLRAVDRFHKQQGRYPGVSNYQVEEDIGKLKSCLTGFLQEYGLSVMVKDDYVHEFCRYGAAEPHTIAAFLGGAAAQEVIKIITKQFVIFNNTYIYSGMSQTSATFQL

Structure (SMILES) | IC50 [1, 3] [µM] | inhibition at 10 µM ([2]; 2 h; read-out: IR (10 μM)) [%] | IC50 ([2]; NAE enzyme activity, HTRF) [nM] | IC50 [1, 4] [µM] | inhibition at 10 µM ([2]; 2 h, read-out: IR (10 μM)) [%]
NS(=O)(=O)OCC1CC(n2nnc3c(Nn4ccc5ccccc54)ncnc32)CC1O (stereo not drawn) [Compound S18] | > 100 | 43.3 | – | – | –
CN1CCC2(CC1)C[C@H](Nc1ncnc3c1nnn3C1CC(O)C(COS(N)(=O)=O)C1)c1ccccc12 (stereo partly drawn) [Compound S15] | 0.01 to 100 | 77 | 100 to 1000 | – | –
NS(=O)(=O)OCC1CC(n2nnc3c(N[C@@H]4c5ccccc5C[C@@H]4O)ncnc32)CC1O (stereo partly drawn) [Compound S9] | < 0.01 | 98.3 | – | – | –
NS(=O)(=O)OCC1CC(n2nnc3c(NC4CCCC4)ncnc32)CC1O (stereo not drawn) [Compound S21] | > 100 | 48.2 | – | – | –
NS(=O)(=O)OCC1CC(n2nnc3c(NCc4cccs4)ncnc32)CC1O (stereo not drawn) [Compound S3] | 0.01 to 100 | 98.8 | – | – | –
NS(=O)(=O)OCC1CC(n2nnc3c(NCCc4cccs4)ncnc32)CC1O (stereo not drawn) [Compound S5] | – | – | 100 to 1000 | > 100 | 95.2
COC(=O)[C@H]1C=C[C@@H](Nc2ncnc3c2nnn3C2CC(O)C(COS(N)(=O)=O)C2)C1 (stereo partly drawn) [Compound S20] | – | – | – | > 100 | 84.8
NS(=O)(=O)OC[C@@H]1C[C@@H](n2ccc3c(N[C@H]4CCc5ccccc54)ncnc32)C[C@@H]1O [MLN4924, reference compound] | < 0.01 | – | – | – | 98.6
NS(=O)(=O)OCC1CC(n2nnc3c(NCCc4ccccc4)ncnc32)CC1O (stereo not drawn) [Compound S6] | – | – | – | > 100 | 95.8
NS(=O)(=O)OCC1CC(n2nnc3c(N[C@H]4CC5(CCNCC5)c5ccccc54)ncnc32)CC1O (stereo partly drawn) [Compound S14] | > 100 | 91.4 | – | – | –
NS(=O)(=O)OCC1CC(n2nnc3c(N[C@H]4CCc5ccccc54)ncnc32)CC1O (stereo partly drawn) [Compound S1] | – | – | – | < 0.01 | 99
NS(=O)(=O)OCC1CC(n2nnc3c(NCCCc4ccccc4)ncnc32)CC1O (stereo not drawn) [Compound S7] | > 100 | 96.1 | 100 to 1000 | – | –
NS(=O)(=O)OCC1CC(n2nnc3c(Nc4n[nH]c5ccccc45)ncnc32)CC1O (stereo not drawn) [Compound S17] | > 100 | 7.9 | – | – | –
NS(=O)(=O)OCC1CC(n2nnc3c(Nc4cnc5ccccn45)ncnc32)CC1O (stereo not drawn) [Compound S19] | > 100 | 57.8 | – | – | –
NS(=O)(=O)OC[C@@H]1C[C@@H](n2nnc3c(N[C@@H]4C[C@H]4c4ccc(F)c(F)c4)ncnc32)CC1O (stereo partly drawn) [Compound S16] | > 100 | 85.2 | – | – | –
NS(=O)(=O)OCC1CC(n2nnc3c(NCc4ccccc4F)ncnc32)CC1O (stereo not drawn) [Compound S2] | < 0.01 | 99.5 | – | – | –
NS(=O)(=O)OCC1CC(n2nnc3c(NCc4ccco4)ncnc32)CC1O (stereo not drawn) [Compound S4] | 0.01 to 100 | 98.6 | – | – | –
CCCCCCNc1ncnc2c1nnn2C1CC(O)C(COS(N)(=O)=O)C1 (stereo not drawn) [Compound S8] | > 100 | 98.3 | – | – | –
